Test results: BindingDB's records for doi:10.1210/endo.135.6.7988476 (Mcgill University, 1994)
Bridge positions count the residues as written; N and C are the ends. Square brackets hold non-standard residues; d marks the D form. Peptide text beside a SMILES is read from it. * marks the point of attachment. NH(1-naphthylmethyl) = c1ccc2c(CN*)cccc2c1

How the values were obtained:
[1] = biological target: Somatostatin receptor type 3 (Homo sapiens, UniProt P32745)
[2] = biological target: Somatostatin receptor type 1 (Homo sapiens, UniProt P30872)
Sequence of Somatostatin receptor type 1 (P30872 whole entry): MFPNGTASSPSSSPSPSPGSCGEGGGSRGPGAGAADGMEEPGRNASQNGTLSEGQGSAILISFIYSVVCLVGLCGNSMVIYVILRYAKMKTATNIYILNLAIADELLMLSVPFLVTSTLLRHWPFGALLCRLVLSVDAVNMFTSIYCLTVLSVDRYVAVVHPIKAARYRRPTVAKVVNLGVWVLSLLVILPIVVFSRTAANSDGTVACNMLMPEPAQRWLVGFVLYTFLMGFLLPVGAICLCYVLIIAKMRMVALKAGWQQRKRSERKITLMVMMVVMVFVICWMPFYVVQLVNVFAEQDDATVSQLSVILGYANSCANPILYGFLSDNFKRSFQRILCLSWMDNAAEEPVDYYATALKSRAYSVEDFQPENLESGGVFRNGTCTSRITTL

[3] = biological target: Somatostatin receptor type 2 (Homo sapiens, UniProt P30874)
Sequence of Somatostatin receptor type 2 (P30874 whole entry): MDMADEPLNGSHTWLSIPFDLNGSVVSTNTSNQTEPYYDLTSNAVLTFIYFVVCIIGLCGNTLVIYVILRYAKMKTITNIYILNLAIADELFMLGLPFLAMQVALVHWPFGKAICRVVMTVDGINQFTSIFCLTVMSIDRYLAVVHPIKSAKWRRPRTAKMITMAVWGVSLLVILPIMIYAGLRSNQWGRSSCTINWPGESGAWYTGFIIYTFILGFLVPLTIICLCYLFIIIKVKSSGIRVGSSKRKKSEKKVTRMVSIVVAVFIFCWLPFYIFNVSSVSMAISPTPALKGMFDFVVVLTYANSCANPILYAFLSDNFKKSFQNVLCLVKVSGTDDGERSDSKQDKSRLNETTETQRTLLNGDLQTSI

[4] = biological target: Somatostatin receptor type 4 (Homo sapiens, UniProt P31391)
Sequence of Somatostatin receptor type 4 (P31391 whole entry): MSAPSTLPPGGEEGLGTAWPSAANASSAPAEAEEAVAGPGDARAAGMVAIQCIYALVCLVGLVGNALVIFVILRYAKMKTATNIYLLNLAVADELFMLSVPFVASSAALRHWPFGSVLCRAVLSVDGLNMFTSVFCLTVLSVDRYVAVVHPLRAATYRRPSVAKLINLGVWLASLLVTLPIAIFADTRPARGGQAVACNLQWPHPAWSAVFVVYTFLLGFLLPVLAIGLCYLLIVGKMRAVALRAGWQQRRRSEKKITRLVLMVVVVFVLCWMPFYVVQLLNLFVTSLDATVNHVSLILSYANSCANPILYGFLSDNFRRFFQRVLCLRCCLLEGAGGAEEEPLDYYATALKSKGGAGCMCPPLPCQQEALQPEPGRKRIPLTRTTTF

Sequence of Somatostatin receptor type 3 (P32745 whole entry): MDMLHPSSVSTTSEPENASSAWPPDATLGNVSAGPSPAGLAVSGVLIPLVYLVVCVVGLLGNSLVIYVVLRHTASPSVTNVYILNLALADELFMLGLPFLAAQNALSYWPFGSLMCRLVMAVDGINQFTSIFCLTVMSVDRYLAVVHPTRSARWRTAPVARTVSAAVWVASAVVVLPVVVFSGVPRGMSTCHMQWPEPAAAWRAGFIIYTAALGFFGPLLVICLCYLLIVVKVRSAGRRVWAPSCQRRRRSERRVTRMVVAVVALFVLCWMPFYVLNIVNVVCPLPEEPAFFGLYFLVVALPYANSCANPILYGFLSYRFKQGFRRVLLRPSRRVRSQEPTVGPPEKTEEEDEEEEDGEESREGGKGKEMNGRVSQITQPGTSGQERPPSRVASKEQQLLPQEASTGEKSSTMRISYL

Row | Structure (SMILES) | Ki [1] | Ki [2] | Ki [3] | Ki [4]
1 | CC(C)C[C@H](NC(=O)[C@H](C)NC(=O)[C@@H]1CCCN1C(=O)[C@H](CC(N)=O)NC(=O)[C@H](CO)NC(=O)[C@H](CC(N)=O)NC(=O)[C@H](C)NC(=O)[C@@H](N)CO)C(=O)N[C@@H](C)C(=O)N1CCC[C@H]1C(=O)N[C@@H](CCCN=C(N)N)C(=O)N[C@@H](CCC(=O)O)C(=O)N[C@@H](CCCN=C(N)N)C(=O)N[C@@H](CCCCN)C(=O)N[C@@H](C)C(=O)NCC(=O)N[C@H]1CSSC[C@@H](C(=O)O)NC(=O)[C@H](CO)NC(=O)[C@H]([C@@H](C)O)NC(=O)[C@H](Cc2ccc(O)cc2)NC(=O)[C@H]([C@@H](C)O)NC(=O)[C@H](CCCCN)NC(=O)[C@@H](Cc2c[nH]c3ccccc23)NC(=O)[C@H](Cc2ccccc2)NC(=O)[C@H](Cc2ccccc2)NC(=O)[C@H](CC(N)=O)NC(=O)[C@H](CCCCN)NC1=O [Leu8, D-Trp22, Tyr25 SST-28] (H-SANSNPALAPRERKAGCKNFF[dW]KTYTSC-OH; disulfide 17-28) | 0.16 nM | 0.41 nM | 0.18 nM | 0.03 nM
2 | NCCCCC1NC(=O)C(Cc2c[nH]c3ccccc23)NC(=O)C(Cc2ccc(O)cc2)NC(=O)C(NC(=O)C(N)Cc2ccccc2)CSSCC(C(=O)NCc2cccc3ccccc23)NC(=O)C(CO)NC1=O (stereo not drawn) [NC4-28B] (H-FCYWKSC-{NH(1-naphthylmethyl)}; disulfide 2-7; configuration not given here) | 8.9 nM | 37.4 nM | 4.4 nM | 195 nM
